Test results as given in patent publication US8901305B2, “Aryl lactam kinase inhibitors” (Bristol-Myers Squibb Company, priority 2012, dated 2014).
pIC50: −log10 of the molar value.

Experiments:
[1] = target: T1, AAK1 (full length human) with AP2M1 in HEK293F cells (Homo sapiens, UniProt Q2M2I8); test: HEK281 cell-based assay (phospho-mu2 Western blot in transfected HEK293F cells); details: 3 hours, inhibition of mu2 phosphorylation
T1 construct: expressed in transfected cells; host or cells: HEK293F
T1 sequence (Q2M2I8 whole entry): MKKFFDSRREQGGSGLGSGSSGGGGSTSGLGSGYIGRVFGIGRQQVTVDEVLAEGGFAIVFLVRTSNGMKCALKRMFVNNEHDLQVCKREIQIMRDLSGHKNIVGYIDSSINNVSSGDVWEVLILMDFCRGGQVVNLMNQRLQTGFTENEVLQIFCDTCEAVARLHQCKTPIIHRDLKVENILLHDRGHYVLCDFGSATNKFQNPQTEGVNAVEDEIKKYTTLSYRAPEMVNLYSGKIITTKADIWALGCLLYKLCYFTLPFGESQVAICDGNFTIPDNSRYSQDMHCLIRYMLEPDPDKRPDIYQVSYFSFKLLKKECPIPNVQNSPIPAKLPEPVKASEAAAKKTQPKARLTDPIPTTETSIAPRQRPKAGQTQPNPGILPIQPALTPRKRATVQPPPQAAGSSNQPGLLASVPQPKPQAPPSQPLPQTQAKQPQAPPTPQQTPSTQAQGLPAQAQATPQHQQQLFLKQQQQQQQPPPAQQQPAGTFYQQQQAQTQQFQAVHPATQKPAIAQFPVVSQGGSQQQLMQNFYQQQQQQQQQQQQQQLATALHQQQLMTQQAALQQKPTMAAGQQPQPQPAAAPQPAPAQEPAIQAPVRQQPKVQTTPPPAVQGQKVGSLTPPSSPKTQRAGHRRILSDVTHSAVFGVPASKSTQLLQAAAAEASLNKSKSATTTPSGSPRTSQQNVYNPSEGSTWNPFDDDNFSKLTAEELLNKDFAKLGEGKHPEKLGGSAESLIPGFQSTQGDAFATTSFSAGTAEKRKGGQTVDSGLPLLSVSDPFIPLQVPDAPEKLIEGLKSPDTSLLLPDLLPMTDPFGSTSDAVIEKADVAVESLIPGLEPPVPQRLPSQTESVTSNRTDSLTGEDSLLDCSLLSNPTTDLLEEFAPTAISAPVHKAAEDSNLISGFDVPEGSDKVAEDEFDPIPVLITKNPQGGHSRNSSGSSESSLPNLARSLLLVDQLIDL
Protocol: HEK293F cells were cultured in media containing DMEM (Gibco, cat. #11965), 10% FBS (SAFC Biosciences, cat. #12103C), 1×GPS (glutamine, penicillin and streptomycin). On day one, cells were plated on a 10 cm dish so that they are ˜80% confluent at time of transfection. Roughly 12 million cells were in a 10 cm dish at time of transfection. On day two, each dish was transfected with 48 ug DNA and 144 ul Lipofectamine 2000 (Invitrogen, cat. #11668-019). The DNA was comprised of a mixture (per 10 cm dish) containing 3 ug AAK1/HA/pIRES (full length human, NCBI accession no. NP_055726.2), 45 μg Flag/AP2MI/pcDNA (full length human), and 1.5 ml OPTI-MEM. The Lipofectamine 2000 is made up of a mixture (per 10 cm dish) containing 144 μl Lipofectamine 2000 and 1.5 ml OPTI-MEM. Each mixture was transferred to individual 15 ml tubes and incubated at RT for 5 minutes, and then the two mixes were combined and incubated at RT for 20 minutes. Growth media was then aspirated from each 10 cm plate and replaced with 10 ml of DMEM+10% FBS (no GPS). Finally, 3 ml DNA/Lipofectamine mix was added to each 10 cm dish and mix gently followed by incubate of plate overnight at 37° C. and 5% CO2.
On day three, compounds were diluted in 100% DMSO at 1000× final concentration, followed by 3-fold serial dilutions for a total of 5 concentrations tested. Four compounds were tested per 10 cm dish. One ul of each compound dilution was then pipetted into a deep-well, 96-well plate, followed by addition of 500 μl DMEM+0.5% FBS into each well for a 2× final concentration of each compound. Cells were resuspended in a 10 cm dish by simple pipetting (HEK293 cells come off the plate that easy at this point) and then transferred to a 50 ml conical tube and pelleted by centrifugation at 1000 rpm for 5 min. Cell pellets were then resuspended in 2.75 ml DMEM+0.5% FBS per 10 cm dish and 100 μl of cell suspension transferred into each well of 96-well TC plate. Finally, 100 μl of 2× compound diluted in DMEM+0.5% FBS was then added into wells containing cell suspension for a 1× final concentration. Plates were then incubated at 37° C. and 5% CO2 for 3 hours followed by transferring of cell suspensions from each well into 12-tube PCR strips. The PCR strips were spun in a tip rack at 1000 rpm for 5 minutes to pellet cells and media was then removed by pipetting without disturbing the cell pellet.
To prepare for Western Blot analysis, cell pellets were resuspend in 40 ul 1×LDS-PAGE sample buffer (Invitrogen, cat. # NP0008)+2× Halt phosphatase and protease inhibitor cocktail (Thermo Scientific, cat. #1861284), followed by sonicating each with microtip sonicator set at 5 for 8-10 seconds. Five ul of 10× NuPage Sample Reducing Agent (with […]) was to each sample followed by heat denaturing at 70 C for 10 min on PCR machine. A total of 10 μl per sample was loaded into each lane of a 4-20% Tris-Glycine Criterion 26-well gel (Biorad, cat. #345-0034) for the phospho-mu2 blot and 10 μl per lane in a 4-12% Bis-Tris (+MES buffer) NuPAGE 26-well gel (Invitrogen, cat. # WG1403BX10) for the mu2 blot. For controls, 2 ng of phospho-mu2 or 20 ng mu2/Flag proteins were loaded in the last well of each gel. After SDS-PAGE, samples on each gel were transferred to PVDF membrane using an iBlot and membranes were blocked for one hour in TBST+5% milk, followed by wash 3× for 5-10 min with TBST. Criterion gels were probed with rabbit anti-phospho-mu2 (1:5000; a rabbit polyclonal antibody produced by New England Peptide and affinity purified at Lexicon) in TBST+5% BSA, whereas, NuPAGE gels were probed with mouse anti-Flag (1:500; Sigma, cat. # F1804) in TBST+5% milk, and these primary antibodies were incubated overnight at 4° C. on a rocker. […]

GST-Xa-hAAK1 = target: T2, GST-Xa-hAAK1 (Homo sapiens, UniProt Q2M2I8); test: AAK1 kinase assay; assay type: biochemical; details: ATP 22 μM, 3 hours at room temperature
T2 construct: made in house
T2 sequence (Q2M2I8 whole entry): as above
Protocol: The assays were performed in U-bottom 384-well plates. […] The reactions were initiated by the combination of bacterially expressed, GST-Xa-hAAK1 with substrates and test compounds. The reactions were incubated at room temperature for 3 hours and terminated by adding 60 μl of 35 mM EDTA buffer to each sample. The reactions were analyzed on the Caliper LabChip 3000 (Caliper, Hopkinton, Mass.) by electrophoretic separation of the fluorescent substrate and phosphorylated product. […] Compounds were dissolved at 10 mM in dimethylsulfoxide (DMSO) and evaluated at eleven concentrations. IC50 values were derived by non-linear regression analysis.

| pIC50 [1] | pIC50 (GST-Xa-hAAK1; given as IC50 range) | pIC50 ([1]; given as IC50 range) | pIC50 (GST-Xa-hAAK1) | Structure (SMILES) |
| --- | --- | --- | --- | --- |
| 9.52 |  |  |  | Cc1nccc2c1c(=O)n(C)c1cc(OC[C@@H](N)CC(C)C)c(C(F)F)cc21 [Example 27, (S)-8-((2-amino-4-methylpentyl)oxy)-9-(difluoromethyl)-4,6-dimethylbenzo[c][2,7]naphthyridin-5(6H)-one] |
| 9.22 |  |  |  | Cc1nccc2c1c(=O)[nH]c1cc(OC[C@@H](N)CC(C)C)c(Br)cc12 [Example 49, (S)-8-(2-amino-4-methylpentyloxy)-9-bromo-4-methylbenzo[c][2,7]naphthyridin-5(6H)-one] |
|  | 7.00 to 8.00 | 7.00 to 8.00 |  | Cc1nccc2c1c(=O)n(C)c1cc(OC[C@H](N)CC(C)C)ccc21 [Example 19, (R)-8-((2-amino-4-methylpentyl)oxy)-4,6-dimethylbenzo[c][2,7]naphthyridin-5(6H)-one] |
|  | 7.00 to 8.00 | 7.00 to 8.00 |  | Cn1c(=O)c2cnccc2c2ccc(OCC(N)CCC(F)(F)F)cc21 (stereo not shown) [Example 15, 8-(2-amino-5,5,5-trifluoropentyloxy)-6-methylbenzo[c][2,7]naphthyridin-5(6H)-one] |
| 8.15 | 8.00 to 9.00 |  |  | CC(C)C[C@H](N)COc1ccc2c3ccncc3c(=O)n(C)c2c1 [Example 2, (S)-8-((2-amino-4-methylpentyl)oxy)-6-methylbenzo[c][2,7]naphthyridin-5(6H)-one] |
|  | > 9.00 | > 9.00 |  | Cc1nccc2c1c(=O)n(C)c1cc(OC[C@@H](N)CC(C)C)c(-c3cnco3)cc21 [Example 72, (S)-8-(2-amino-4-methylpentyloxy)-4,6-dimethyl-9-(oxazol-5-yl)benzo[c][2,7]naphthyridin-5(6H)-one] |
|  |  | 7.00 to 8.00 | 8.35 | CC(C)C[C@H](N)COc1cc2c(cc1C(C)C)c1ccncc1c(=O)n2C [Example 47, (S)-8-(2-amino-4-methylpentyloxy)-9-isopropyl-6-methylbenzo[c][2,7]naphthyridin-5(6H)-one] |
|  |  | 7.00 to 8.00 | 8.41 | Cc1nccc2c1c(=O)n(C)c1cc(OCC(C)(N)CC(C)C)ccc21 (stereo not shown) [Example 32, 8-((2-amino-2,4-dimethylpentyl)oxy)-4,6-dimethylbenzo[c][2,7]naphthyridin-5(6H)-one] |
|  | 8.00 to 9.00 | 8.00 to 9.00 |  | Cc1nccc2c1c(=O)n(C)c1cc(OC[C@@H](N)CC(C)C)c(-c3cncs3)cc21 [Example 83, (S)-8-(2-amino-4-methylpentyloxy)-4,6-dimethyl-9-(thiazol-5-yl)benzo[c][2,7]naphthyridin-5(6H)-one] |
|  | 7.00 to 8.00 | 7.00 to 8.00 |  | Cc1nccc2c1c(=O)n(C)c1cc(OC[C@@H](N)CC(C)C)ccc21 [Example 16, (S)-8-((2-amino-4-methylpentyl)oxy)-4,6-dimethylbenzo[c][2,7]naphthyridin-5(6H)-one] |
|  | 8.00 to 9.00 | 7.00 to 8.00 |  | CC(C)CC(C)(N)COc1ccc2c3c(F)cncc3c(=O)n(C)c2c1 (stereo not shown) [Example 97, 8-(2-amino-2,4-dimethylpentyloxy)-1-fluoro-6-methylbenzo[c][2,7]naphthyridin-5(6H)-one] |
|  |  | 8.00 to 9.00 | 8.52 | CC(C)C[C@H](N)COc1ccc2c3ccnc(N)c3c(=O)n(C)c2c1 [Example 17, (S)-4-amino-8-(2-amino-4-methylpentyloxy)-6-methylbenzo[c][2,7]naphthyridin-5(6H)-one] |
|  | 8.00 to 9.00 | 8.00 to 9.00 |  | Cc1nccc2c1c(=O)n(C)c1cc(OC[C@@H](N)CC(C)C)c(Cl)cc21 [Example 62, (S)-8-((2-amino-4-methylpentyl)oxy)-9-chloro-4,6-dimethylbenzo[c][2,7]naphthyridin-5(6H)-one] |
|  | 8.00 to 9.00 | 7.00 to 8.00 |  | Cc1nccc2c1c(=O)[nH]c1c(F)c(OC[C@@H](N)CC(C)C)c(Cl)cc12 [Example 103, (S)-8-(2-amino-4-methylpentyloxy)-9-chloro-7-fluoro-4-methylbenzo[c][2,7]naphthyridin-5(6H)-one] |
| 8.68 | 8.00 to 9.00 |  |  | CC(C)C[C@H](N)COc1cc2c(cc1C1CC1)c1ccncc1c(=O)n2C [Example 6, (S)-8-((2-amino-4-methylpentyl)oxy)-9-cyclopropyl-6-methylbenzo[c][2,7]naphthyridin-5(6H)-one] |
|  |  | 8.00 to 9.00 | 8.54 | Cc1cc2c3ccnc(C)c3c(=O)n(C)c2cc1OC[C@@H](N)CC1CCC1 [Example 26, (S)-8-(2-amino-3-cyclobutylpropoxy)-4,6,9-trimethylbenzo[c][2,7]naphthyridin-5(6H)-one] |
| 8.62 | 8.00 to 9.00 |  |  | CC(C)C[C@H](N)COc1cc2c(cc1F)c1ccnc(N)c1c(=O)n2C [Example 52, (S)-4-amino-8-(2-amino-4-methylpentyloxy)-9-fluoro-6-methylbenzo[c][2,7]naphthyridin-5(6H)-one] |
| 8.28 | 8.00 to 9.00 |  |  | Cc1nccc2c1c(=O)[nH]c1cc(OC[C@@H](N)CC(C)C)c(F)cc12 [Example 101, (S)-8-(2-amino-4-methylpentyloxy)-9-fluoro-4-methylbenzo[c][2,7]naphthyridin-5(6H)-one] |
| 8.60 |  |  |  | CC(C)C[C@H](N)COc1cc2c(cc1C#N)c1ccncc1c(=O)n2C [Example 5, (S)-8-((2-amino-4-methylpentyl)oxy)-6-methyl-5-oxo-5,6 dihydrobenzo[c][2,7]naphthyridine-9-carbonitrile] |
| 7.54 |  |  |  | CC(C)C[C@H](N)COc1c(Cl)cc2c3ccncc3c(=O)n(C)c2c1Cl [Example 10, (S)-8-((2-amino-4-methylpentyl)oxy)-7,9-dichloro-6-methylbenzo[c][2,7]naphthyridin-5(6H)-one] |
| 8.30 |  |  |  | CC(C)C[C@H](N)COc1cc2c(cc1Cl)c1ccncc1c(=O)n2C [Example 43, (S)-8-((2-amino-4-methylpentyl)oxy)-9-chloro-6-methylbenzo[c][2,7]naphthyridin-5(6H)-one] |
|  |  | 8.00 to 9.00 |  | CN[C@H](COc1cc2c(cc1C#N)c1ccnc(C)c1c(=O)n2C)CC(C)C [Example 65, (S)-4,6-dimethyl-8-(4-methyl-2-(methylamino)pentyloxy)-5-oxo-5,6-dihydrobenzo[c][2,7]naphthyridine-9-carbonitrile] |
| 8.62 |  |  |  | Cc1cc2c3ccncc3c(=O)n(C)c2cc1OC[C@@H](N)CC(C)C [Example 4, (S)-8-((2-amino-4-methylpentyl)oxy)-6,9-dimethylbenzo[c][2,7]naphthyridin-5(6H)-one] |

| Structure (SMILES) | pIC50 [1] | pIC50 (GST-Xa-hAAK1; given as IC50 range) | pIC50 ([1]; given as IC50 range) | pIC50 (GST-Xa-hAAK1) |
| --- | --- | --- | --- | --- |
| CC(C)C[C@H](N)COc1cc2c(cc1F)c1ccncc1c(=O)n2C [Example 14, (S)-8-((2-amino-4-methylpentyl)oxy)-9-fluoro-6-methylbenzo[c][2,7]naphthyridin-5(6H)-one] |  |  | 8.00 to 9.00 | 8.15 |
| C=CCn1c(=O)c2cnccc2c2ccc(OC[C@@H](N)CC(C)C)cc21 [Example 9, (S)-6-allyl-8-((2-amino-4-methylpentyl)oxy)benzo[c][2,7]naphthyridin-5(6H)-one] | 7.62 |  |  | 8.01 |
